Source: patent US12692249B2, “WDR5 inhibitors and modulators” (Vanderbilt University, priority 2019, dated 2026)
Like-named read-outs stand apart in the source and are kept apart here.

Legend:
WDR5 = WDR5 (Homo sapiens, UniProt P61964); test: TR-FRET competition binding assay, displacement of 10mer-Thr-FAM MLL peptide probe from His-tagged WDR5; conditions: WDR5-His tag (residues 24-334) 2 nM; 10mer-Thr-FAM 150 nM; 60 min, room temperature; read-out: Ki for Inhibition of WDR5 by TR-FRET assay
[1] = tested on: MV4:11 human cancer cell lines; test: Cellular viability / anti-proliferative assay, CellTiter-Glo, 5 day protocol; assay type: cell-based; conditions: Homo sapiens, MV4-11, 120 h, read-out: GI50 on cellular proliferation of MV4:11 human cancer cell lines
In short: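 Luminescent ATP-based viability (CellTiter-Glo) after a 5-day exposure gave GI50 via sigmoidal fitting, averaged over two or more replicates. Compounds spanned 22 two-fold steps down from 30 μM at 0.3% DMSO, on 200 MV-4-11 cells per well grown in IMDM plus 10% FBS.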

[2] = MV4:11 cells, 5 day incubation, CellTiter-Glo, mean of at least two replicates

Compound | Ki (WDR5) | GI50 [1, 2] | GI50 [1]
Cc1nccn1Cc1cc2c(c(-c3cn(C)nc3C(F)(F)F)c1)CCN(C1CCCc3ncccc31)C2=O (centres unmarked) [Example 64, 7-((2-Methyl-1H-imidazol-1-yl)methyl)-5-(1-methyl-3-(trifluoromethyl)-1H-pyrazol-4-yl)-2-(5,6,7,8-tetrahydroquinolin-5-yl)-3,4-dihydroisoquinolin-1(2H)-one] | 0.042 nM | 284 nM | 
COc1cnc2c(c1)C(N1CCc3c(cc(Cn4ccnc4C)cc3-c3cn(C)nc3C(F)(F)F)C1=O)CCC2 (centres unmarked) [Example 65, 2-(3-Methoxy-5,6,7,8-tetrahydroquinolin-5-yl)-7-((2-methyl-1H-imidazol-1-yl)methyl)-5-(1-methyl-3-(trifluoromethyl)-1H-pyrazol-4-yl)-3,4-dihydroisoquinolin-1(2H)-one] | < 0.02 nM | < 20 nM | 
COc1ccc2c(c1)C(N1CCc3c(cc(Cn4ccnc4)cc3-c3cn(C)nc3C(F)(F)F)C1=O)CCO2 (centres unmarked) [Example 67, 7-((1H-Imidazol-1-yl)methyl)-2-(6-methoxychroman-4-yl)-5-(1-methyl-3-(trifluoromethyl)-1H-pyrazol-4-yl)-3,4-dihydroisoquinolin-1(2H)-one] | 0.062 nM | 35 nM | 
COc1cnc2c(c1)[C@@H](N1CCc3c(cc(Cn4ccnc4)cc3-c3cn(C)nc3C(F)(F)F)C1=O)CCC2 [Example 71, (S)-7-((1H-Imidazol-1-yl)methyl)-2-(3-methoxy-5,6,7,8-tetrahydroquinolin-5-yl)-5-(1-methyl-3-(trifluoromethyl)-1H-pyrazol-4-yl)-3,4-dihydroisoquinolin-1(2H)-one] | < 0.02 nM | < 20 nM | 
Cn1cc(-c2cc(Cn3ccnc3)cc3c2CCN([C@H]2CCOc4ncc(Cl)cc42)C3=O)c(C(F)(F)F)n1 [Example 72] | < 0.02 nM |  | < 20 nM
CN1CC[C@H](N2CCc3c(cc(Cn4ccnc4)cc3-c3cn(C)nc3C(F)(F)F)C2=O)c2cc(Cl)cnc21 [Example 73, (S)-7-((1H-Imidazol-1-yl)methyl)-2-(6-chloro-1-methyl-1,2,3,4-tetrahydro-1,8-naphthyridin-4-yl)-5-(1-methyl-3-(trifluoromethyl)-1H-pyrazol-4-yl)-3,4-dihydroisoquinolin-1(2H)-one] | < 0.02 nM |  | < 20 nM
CCn1cc(-c2cc(Cn3ccnc3C)cc3c2CCN([C@H]2CCOc4ccc(OC)cc42)C3=O)c(C(F)(F)F)n1 [Example 74, (S)-5-(1-Ethyl-3-(trifluoromethyl)-1H-pyrazol-4-yl)-2-(6-methoxychroman-4-yl)-7-((2-methyl-1H-imidazol-1-yl)methyl)-3,4-dihydroisoquinolin-1(2H)-one] | < 0.02 nM |  | 20 nM
CCn1cc(-c2cc(Cn3ccnc3)cc3c2CCN([C@H]2CCOc4ccc(OC)cc42)C3=O)c(C(F)(F)F)n1 [Example 75, (S)-7-((1H-Imidazol-1-yl)methyl)-5-(1-ethyl-3-(trifluoromethyl)-1H-pyrazol-4-yl)-2-(6-methoxychroman-4-yl)-3,4-dihydroisoquinolin-1(2H)-one] | < 0.02 nM | 23 nM | 
Cc1nccn1Cc1cc2c(c(-c3cn(C)nc3C(F)(F)F)c1)CCN(C1COc3ccccc31)C2=O (centres unmarked) [Example 77, 2-(2,3-Dihydrobenzofuran-3-yl)-7-((2-methyl-1H-imidazol-1-yl)methyl)-5-(1-methyl-3-(trifluoromethyl)-1H-pyrazol-4-yl)-3,4-dihydroisoquinolin-1(2H)-one] | < 0.02 nM | 583 nM | 
COc1ccc2c(c1)c(N1CCc3c(cc(Cn4ccnc4C)cc3-c3cn(C)nc3C(F)(F)F)C1=O)c(C)n2C [Example 80, 2-(5-Methoxy-1,2-dimethyl-1H-indol-3-yl)-7-((2-methyl-1H-imidazol-1-yl)methyl)-5-(1-methyl-3-(trifluoromethyl)-1H-pyrazol-4-yl)-3,4-dihydroisoquinolin-1(2H)-one] | 0.029 nM | 61 nM | 
COc1cnc2c(c1)c(N1CCc3c(cc(Cn4ccnc4)cc3-c3cn(C)nc3C(F)(F)F)C1=O)cn2C [Example 83] | < 0.02 nM | 45 nM | 
CCn1cc(N2CCc3c(cc(Cn4ccnc4)cc3-c3cn(C)nc3C(F)(F)F)C2=O)c2cc(OC)cnc21 [Example 84, 7-((1H-Imidazol-1-yl)methyl)-2-(1-ethyl-5-methoxy-1H-pyrrolo[2,3-b]pyridin-3-yl)-5-(1-methyl-3-(trifluoromethyl)-1H-pyrazol-4-yl)-3,4-dihydroisoquinolin-1(2H)-one] | < 0.02 nM | 39 nM | 
COc1ccc2cncc(N3CCc4c(cc(Cn5ccnc5)cc4-c4cn(C)nc4C(F)(F)F)C3=O)c2c1 [Example 87, 7-((1H-imidazol-1-yl)methyl)-6′-methoxy-5-(1-methyl-3-(trifluoromethyl)-1H-pyrazol-4-yl)-3,4-dihydro-1H-[2,4′-biisoquinolin]-1-one] | 0.027 nM | < 20 nM | 

Second part, led by results:

Ki (WDR5) | GI50 [1, 2] | Compound | GI50 [1]
0.062 nM | 84 nM | COc1ccc2c(c1)C(N1CCc3c(cc(Cn4ccnc4)cc3-c3cn(C)nc3C(F)(F)F)C1=O)CCC2 (centres unmarked) [Example 66, 7-((1H-Imidazol-1-yl)methyl)-2-(7-methoxy-1,2,3,4-tetrahydronaphthalen-1-yl)-5-(1-methyl-3-(trifluoromethyl)-1H-pyrazol-4-yl)-3,4-dihydroisoquinolin-1(2H)-one] | 
< 0.02 nM | < 20 nM | COc1cnc2c(c1)[C@@H](N1CCc3c(cc(Cn4ccnc4C)cc3-c3cn(C)nc3C(F)(F)F)C1=O)CCC2 [Example 68, (S)-2-(3-Methoxy-5,6,7,8-tetrahydroquinolin-5-yl)-7-((2-methyl-1H-imidazol-1-yl)methyl)-5-(1-methyl-3-(trifluoromethyl)-1H-pyrazol-4-yl)-3,4-dihydroisoquinolin-1(2H)-one] | 
< 0.02 nM | < 20 nM | COc1ccc2c(c1)[C@@H](N1CCc3c(cc(Cn4ccnc4C)cc3-c3cn(C)nc3C(F)(F)F)C1=O)CCO2 [Example 69, (S)-2-(6-Methoxychroman-4-yl)-7-((2-methyl-1H-imidazol-1-yl)methyl)-5-(1-methyl-3-(trifluoromethyl)-1H-pyrazol-4-yl)-3,4-dihydroisoquinolin-1(2H)-one] | 
< 0.02 nM | < 20 nM | COc1ccc2c(c1)[C@@H](N1CCc3c(cc(Cn4ccnc4)cc3-c3cn(C)nc3C(F)(F)F)C1=O)CCO2 [Example 70, (S)-7-((1H-Imidazol-1-yl)methyl)-2-(6-methoxychroman-4-yl)-5-(1-methyl-3-(trifluoromethyl)-1H-pyrazol-4-yl)-3,4-dihydroisoquinolin-1(2H)-one] | 
< 0.02 nM | 613 nM | Cc1nccn1Cc1cc2c(c(-c3cn(C)nc3C(F)(F)F)c1)CCN([C@H]1CCc3ccccc31)C2=O [Example 76, (S)-2-(2,3-Dihydro-1H-inden-1-yl)-7-((2-methyl-1H-imidazol-1-yl)methyl)-5-(1-methyl-3-(trifluoromethyl)-1H-pyrazol-4-yl)-3,4-dihydroisoquinolin-1(2H)-one] | 
0.029 nM | 48 nM | COc1ccc2c(c1)c(N1CCc3c(cc(Cn4ccnc4C)cc3-c3cn(C)nc3C(F)(F)F)C1=O)cn2C [Example 78, 2-(5-Methoxy-1-methyl-1H-indol-3-yl)-7-((2-methyl-1H-imidazol-1-yl)methyl)-5-(1-methyl-3-(trifluoromethyl)-1H-pyrazol-4-yl)-3,4-dihydroisoquinolin-1(2H)-one] | 
< 0.02 nM | < 20 nM | COc1cnc2c(c1)c(N1CCc3c(cc(Cn4ccnc4C)cc3-c3cn(C)nc3C(F)(F)F)C1=O)cn2C [Example 79, 2-(5-Methoxy-1-methyl-1H-pyrrolo[2,3-b]pyridin-3-yl)-7-((2-methyl-1H-imidazol-1-yl)methyl)-5-(1-methyl-3-(trifluoromethyl)-1H-pyrazol-4-yl)-3,4-dihydroisoquinolin-1(2H)-one] | 
< 0.02 nM | 38 nM | COc1ccc2c(c1)c(N1CCc3c(cc(Cn4ccnc4C)cc3-c3cn(C)nc3C(F)(F)F)C1=O)nn2C [Example 81, 2-(5-Methoxy-1-methyl-1H-indazol-3-yl)-7-((2-methyl-1H-imidazol-1-yl)methyl)-5-(1-methyl-3-(trifluoromethyl)-1H-pyrazol-4-yl)-3,4-dihydroisoquinolin-1(2H)-one] | 
0.061 nM | 384 nM | Cc1nccn1Cc1cc2c(c(-c3cn(C)nc3C(F)(F)F)c1)CCN(c1cn(C)c3ncc(F)cc13)C2=O [Example 82, 2-(5-Fluoro-1-methyl-1H-pyrrolo[2,3-b]pyridin-3-yl)-7-((2-methyl-1H-imidazol-1-yl)methyl)-5-(1-methyl-3-(trifluoromethyl)-1H-pyrazol-4-yl)-3,4-dihydroisoquinolin-1(2H)-one] | 
< 0.02 nM | 92 nM | COc1cc(OC)c2c(c1)c(N1CCc3c(cc(Cn4ccnc4)cc3-c3cn(C)nc3C(F)(F)F)C1=O)cn2C [Example 85, 7-((1H-Imidazol-1-yl)methyl)-2-(5,7-dimethoxy-1-methyl-1H-indol-3-yl)-5-(1-methyl-3-(trifluoromethyl)-1H-pyrazol-4-yl)-3,4-dihydroisoquinolin-1(2H)-one] | 
< 0.02 nM | 107 nM | CCn1cc(-c2cc(Cn3ccnc3C)cc3c2CCN(c2cn(C)c4ccc(OC)cc24)C3=O)c(C(F)(F)F)n1 [Example 86, 5-(1-Ethyl-3-(trifluoromethyl)-1H-pyrazol-4-yl)-2-(5-methoxy-1-methyl-1H-indol-3-yl)-7-((2-methyl-1H-imidazol-1-yl)methyl)-3,4-dihydroisoquinolin-1(2H)-one] | 
0.043 nM | < 20 nM | COc1ccc2c(C)ncc(N3CCc4c(cc(Cn5ccnc5)cc4-c4cn(C)nc4C(F)(F)F)C3=O)c2c1 [Example 88, 7-((1H-imidazol-1-yl)methy)-6′-methoxy-1′-methyl-5-(1-methyl-3-(trifluoromethyl)-1H-pyrazol-4-yl)-3,4-dihydro-1H-[2,4′-biisoquinolin]-1-one] | 
